Measured values from PMC5556071, “ATR inhibition facilitates targeting of leukemia dependence on convergent nucleotide biosynthetic pathways” (Nature Communications, 2017).
Several values for one entry are separate records, joined by “and”; a condition that tells them apart may be missing. Equal entries are not always repeated.

Test system: CEM cells
Experiment: Non-targeted LC-MS metabolite profiling: percent [13C6]glucose labeling and relative metabolite levels
Assay type: cell-based, human
Conditions: CEM cells, 12 h following release from G1 arrest, replicates #1-#6
Text: To further investigate the functions of dCK and ATR at the G1/S transition in CEM cells, a non-targeted liquid chromatography mass spectrometry (LC-MS) assay was used to determine the utilization of labeled [^13C6]glucose and [^13C9,^15N3]deoxycytidine, the main substrates for de novo and salvage nucleotide biosynthesis, respectively. Of the 166 metabolites identified in CEM cells treated with VE-822 and/or dCKi, 105 metabolites found in all four treatment groups contained glucose-derived ^13C atoms. […] These metabolites included intermediates such as rUTP, rCTP and rCDP in the de novo dCTP biosynthesis (Fig. 1d). […] However, several deoxyribonucleotides, including dCTP, were below the limit of detection of the non-targeted LC-MS approach, raising the concern that the sensitivity of this assay is not sufficient to measure the contribution of the salvage pathway or the ratio of de novo and salvage biosynthesis to these pools. To address this problem, a newly developed targeted MS assay was developed (Fig. 1e and Supplementary Fig. 3). In this assay, samples containing either extracted dNTPs or hydrolyzed DNA from labeled cells are separated by LC for detection by a triple quadrupole mass spectrometer using multiple reaction monitoring (LC-MS/MS-MRM). The first (Q1) and third (Q3) quadrupoles function as mass filters, while the second (Q2) quadrupole serves as a collision chamber (Fig. 1e). For instance, to profile the biosynthetic composition of deoxycytidine (dC) derived from hydrolyzed DNA or dCTP, an intact, protonated dC ion is selected in Q1, followed by fragmentation of the glycosidic bond, which releases protonated cytosine in Q2, that is filtered in Q3 and detected to generate an ion chromatogram. The peak areas for the ion chromatograms of salvage [^13C9,^15N3]dC (red trace), de novo [^13C5]dC (black trace, from [^13C6]glucose) and unlabeled dC (gray trace) (Fig. 1e) are used to determine the relative contributions of the de novo and salvage routes both to dCTP pools and to DNA-incorporated dCTP.
Cells were transferred into RPMI-1640 without glucose and supplemented with 10% dialyzed FBS (Gibco) containing the following labeled substrates: precursors for de novo [U-^13C6]glucose (Sigma-Aldrich, 389374) at 11 mM; precursors for purine salvage [U-^13C10,^15N5]dA (Cambridge Isotopes, CIL 3896), [^15N5]dA (Cambridge Isotopes, NLM-3895) and [^15N5]dG (Cambridge Isotopes, NLM-3899) at 5 µM or as indicated; and precursors for pyrimidine salvage: [U-^13C9,^15N3]dC (Silantes, 124603602) and [U-^13C10,^15N2]dT (Cambridge Isotopes, CNLM-3902) at 5 µM and [^15N2]orotate (Cambridge Isotopes, NLM-1048) at indicated concentrations. The cells were incubated for 12 h or as indicated before sample collection and processing. […]
Non-targeted LC-MS metabolic assays. 1 x 10^6 cells were washed with ice-cold 150 mM ammonium acetate twice before adding 1 mL of ice-cold 80% methanol with 10 nM norvaline as an internal standard. After vigorous vortexing, samples were centrifuged at maximum speed, the aqueous layer was transferred to a glass vial and the metabolites were dried under vacuum. Metabolites were resuspended in 50 μL 70% acetonitrile (ACN) and 5 μL of this solution used for the mass spectrometer-based analysis. The analysis was performed on a Q Exactive (Thermo Scientific) in polarity-switching mode with positive voltage 4.0 kV and negative voltage 4.0 kV. The mass spectrometer was coupled to an UltiMate 3000RSLC (Thermo Scientific) UHPLC system. Mobile phase A was 5 mM ammonium acetate (NH4AcO), pH 9.9, B was acetonitrile and the separation achieved on a Luna […] NH2 100 A column (150 × 2.0 mm, Phenomenex). The flow was 200 μL/min, and the gradient ran from 15% A to 95% A in 18 min, followed by an isocratic step for 9 min and re-equilibration for 7 min. Metabolites were detected and quantified as area under the curve based on retention time and accurate mass (≤ 3 p.p.m.) using the TraceFinder 3.1 (Thermo Scientific). Relative amounts of […]

[1] = metabolite 2-HG (C02630), listed as D
[2] = metabolite 2-Oxoadipate (C00322), listed as D
[3] = metabolite 3PG (C00197), listed as D
[4] = metabolite 4-OH-PheLac (C03672), listed as D
[5] = metabolite 5-Oxoproline (C01879), listed as D
[6] = metabolite 5M-adenosine (C00170), listed as D
[7] = metabolite A (C00212), listed as D
[8] = metabolite ADP (C00008), listed as D
[9] = metabolite AMP (C00020), listed as D
[10] = metabolite ATP (C00002), listed as D
[11] = metabolite Ac-carnitine (C02571), listed as D
[12] = metabolite Ac-choline (C01996), listed as D
[13] = metabolite Aconitate (C00417), listed as D
[14] = metabolite Adenine (C00034), listed as D
[15] = metabolite Ala (C00041), listed as D
[16] = metabolite Allantoin (C02350), listed as D
[17] = metabolite Arg (C00062), listed as D

## COc1ccc(-c2nc([C@@H](C)Sc3nc(N)cc(N)n3)c(C)s2)cc1OCCNS(C)(=O)=O [dCKi]
Listed as D
  Relative level, S7P: 0.547 and 0.8 and 1.8 and 0.0379 and 0.143 and 0.5
  Relative level, SAM: 1.1 and 1.4 (2×) and 0.8 and 0.6 and 0.7
  Relative level, Sarc (C00213): 1.2 and 1.0 (2×) and 1.6 and 0.662 and 0.641
  Relative level, Ser (C00065): 1.1 and 1.2 and 1.3 and 0.846 and 0.7 and 0.9
  Relative level, Shikimate (C00493): 1.3 and 0.7 and 1.0 and 0.649 and 0.9 (2×)
  Relative level, Succ (C00042): 1.5 and 0.6 (2×) and 1.3 and 0.374 and 0.633
  Relative level, T (C00214): 1.2 and 1.1 and 1.0 and 1.4 and 151.2 and 4.3
  Relative level, Thr (C00188): 1.1 and 1.2 and 1.3 and 0.8 and 0.7 and 0.738
  Relative level, Thymine (C00178): 1.0 and 1.2 and 1.3 and 0.9 and 0.95 and 1.1
  Relative level, Trigonelline (C01004): 1.2 (2×) and 0.847 and 1.1 and 1.5 and 1.0
  Relative level, Trp (C00078): 1.1 and 1.4 and 1.7 and 0.9 (2×) and 1.0
  Relative level, Tyr (C00082): 1.2 and 1.4 and 1.6 and 0.9 and 0.7 and 0.8
  Relative level, Tyramine (C00483): 1.2 (2×) and 1.1 and 0.8 (2×) and 0.7
  Relative level, UDP (C00015): 0.742 and 1.3 and 2.0 and 0.235 and 0.464 and 0.9
  Relative level, UDP-Glc (C00029): 0.8 and 1.2 and 1.1 and 0.3 and 0.6 (2×)
  Relative level, UDP-GlcNAc (C00043): 1.0 and 1.4 and 1.2 and 0.5 and 0.744 and 0.8
  Relative level, UMP (C00105): 1.3 and 1.6 and 1.9 and 0.4 and 0.552 and 0.7
  Relative level, UTP (C00075): 0.4 and 0.9 and 1.4 and 0.092 and 0.334 and 0.547
  Relative level, Uracil (C00106): 1.2 (2×) and 0.9 and 1.0 and 1.3 and 1.9
  Relative level, Uric Acid (C00366): 1.5 and 0.155 and 0.646 and 0.6 and 0.362 and 0.421
  Relative level, Urocanate (C00785): 2.0 and 0.4 and 0.448 and 1.2 (2×) and 1.0
  Relative level, Val (C00183): 1.1 and 1.2 (2×) and 0.9 (2×) and 1.0
  Relative level, Vit-C (C00072): 0.9 and 0.181 and 1.3 and 0.0595 and 0.3 and 0.557
  Relative level, Xanthine (C00385): 1.7 and 0.5 and 0.6 and 1.1 and 1.5 and 1.2
[1]
  Glucose labeling, 2-HG: 6.77% and 13.59% and 15.44% and 1.27% and 1.71% and 4.69%
  Relative level, 2-HG: 1.0 and 0.9 and 1.5 and 0.5 (2×) and 0.7
Metabolite 2-HIC (C03264)
  Glucose labeling, 2-HIC: 0.00%
Metabolite 2-HIC (C03264), listed as D
  Relative level, 2-HIC: 1.2 and 1.1 and 1.4 and 0.9 and 1.3 and 0.8
Metabolite 2-KIC (C00233)
  Glucose labeling, 2-KIC: 0.00%
Metabolite 2-KIC (C00233), listed as D
  Relative level, 2-KIC: 1.2 and 0.9 (3×) and 1.1 and 0.8
[2]
  Glucose labeling, 2-Oxoadipate: 0.00% (5×) and 1.11e-14%
  Relative level, 2-Oxoadipate: 0.7 (2×) and 0.646 and 0.742 and 1.0 and 0.9
Metabolite 2-Oxosuccinamate (C02362)
  Glucose labeling, 2-Oxosuccinamate: 0.0737%
Metabolite 2-Oxosuccinamate (C02362), listed as D
  Relative level, 2-Oxosuccinamate: 1.2 and 0.465 and 0.6 and 0.528 and 0.8 and 0.469
[3]
  Glucose labeling, 3PG: 92.31% and 91.58% and 98.25% and 86.75% and 100.00% and 88.16%
  Relative level, 3PG: 0.4 and 0.7 and 0.846 and 0.082 and 0.125 and 0.0782
[4]
  Glucose labeling, 4-OH-PheLac: 0.00% (5×) and -2.22e-14%
  Relative level, 4-OH-PheLac: 1.1 and 1.4 and 1.5 and 0.641 and 0.6 and 0.8
[5]
  Glucose labeling, 5-Oxoproline: 0.92% and 1.40% and 1.07% and 1.03% and 1.24% and 1.22%
  Relative level, 5-Oxoproline: 1.1 and 1.2 and 1.5 and 0.853 and 0.9 and 1.0
[6]
  Glucose labeling, 5M-adenosine: 0.00% (3×) and -2.22e-14% (3×)
  Relative level, 5M-adenosine: 1.2 and 1.7 and 1.8 and 0.756 and 0.7 and 1.0
[7]
  Glucose labeling, A: 0.07% and 0.09% and 0.36% and 0.41% (2×) and 0.34%
  Relative level, A: 1.5 and 0.9 (2×) and 1.1 and 0.856 and 0.8
[8]
  Glucose labeling, ADP: 70.99% and 74.74% and 75.09% and 55.71% and 66.84% and 71.23%
  Relative level, ADP: 0.7 and 1.2 and 1.9 and 0.226 and 0.4 and 0.8
[9]
  Glucose labeling, AMP: 68.04% and 70.86% and 73.23% and 43.50% and 56.58% and 70.44%
  Relative level, AMP: 1.2 (2×) and 1.8 and 0.25 and 0.471 and 0.9
[10]
  Glucose labeling, ATP: 75.87% and 76.55% and 77.60% and 67.61% and 74.40% and 75.12%
  Relative level, ATP: 0.38 and 0.9 and 1.3 and 0.117 and 0.3 and 0.6
[11]
  Glucose labeling, Ac-carnitine: 31.00% and 33.96% and 35.62% and 27.44% and 29.81% and 28.83%
  Relative level, Ac-carnitine: 1.1 and 1.3 and 1.2 and 0.7 and 0.756 and 0.8
[12]
  Glucose labeling, Ac-choline: 0.00451% and 0.00494% and 0.00571% and 0.0058% and 0.0047% and 0.00638%
  Relative level, Ac-choline: 0.9 and 1.1 and 1.0 (4×)
[13]
  Glucose labeling, Aconitate: 32.66% and 37.44% and 42.11% and 17.39% and 31.02% and 28.93%
  Relative level, Aconitate: 0.7 and 1.2 and 1.6 and 0.2 and 0.5 and 0.639
[14]
  Glucose labeling, Adenine: 0.0339% and 2.19% and 0.79% and 0.14% and 0.00469% and 0.21%
  Relative level, Adenine: 1.9 and 0.7 and 1.3 (2×) and 3.1 and 1.0
[15]
  Glucose labeling, Ala: 47.12% and 64.98% and 65.33% and 49.43% and 49.22% and 48.91%
  Relative level, Ala: 1.5 and 1.2 and 1.3 and 0.8 (3×)
[16]
  Glucose labeling, Allantoin: 0.00% (5×) and 1.11e-14%
  Relative level, Allantoin: 1.1 and 1.9 and 2.0 and 0.8 and 1.3 and 1.5
[17]
  Glucose labeling, Arg: 0.0044% and 0.00434% and 0.00388% and 0.00418% and 0.00453% and 0.00424%
  Relative level, Arg: 1.0 and 1.3 and 1.5 and 0.749 and 0.7 (2×)
Metabolite Arg-Succ (C03406), listed as D
  Glucose labeling, Arg-Succ: 7.24% and 12.66% and 11.40% and 7.14% and 3.06% and 7.90%
